Test [1] addresses T1, human neutrophil derived cathepsin G (Homo sapiens, UniProt P08311).
T1 sequence (P08311 21-244 limits assumed): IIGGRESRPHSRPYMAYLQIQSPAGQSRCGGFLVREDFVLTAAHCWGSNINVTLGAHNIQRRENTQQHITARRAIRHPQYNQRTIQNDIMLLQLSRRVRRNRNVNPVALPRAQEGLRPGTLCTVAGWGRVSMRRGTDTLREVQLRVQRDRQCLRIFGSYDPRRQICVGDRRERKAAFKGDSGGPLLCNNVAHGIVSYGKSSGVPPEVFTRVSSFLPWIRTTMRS
In words: Measurement of cathepsin G inhibitive activity (conversion of Ang I to Ang II, HPLC). The settings on record: Ang I substrate, 37° C., 30 min, pH 7.5. Format: biochemical.

The target of test [2] is T2, human heart chymase (Homo sapiens, UniProt P23946).
T2 sequence (P23946 22-247): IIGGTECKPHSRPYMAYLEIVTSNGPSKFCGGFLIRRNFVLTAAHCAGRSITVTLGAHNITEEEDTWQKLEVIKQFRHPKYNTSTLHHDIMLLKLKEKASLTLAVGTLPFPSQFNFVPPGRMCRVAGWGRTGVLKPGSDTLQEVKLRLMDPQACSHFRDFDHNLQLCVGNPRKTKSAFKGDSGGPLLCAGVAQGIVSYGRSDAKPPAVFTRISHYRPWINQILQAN
In words: biochemical. The settings on record: Chymase inhibitive activity (IC50), Ang I substrate, 37° C., 30 min, pH 7.5.
Procedure: That is, to 10 μl of a 20 mM trisphosphate buffer (pH 7.5) containing 2MKCl were added 10 μl of purified chymase and 5 μl of a dimethylsulfoxide (hereinafter referred to as DMSO) solution of the test sample. The mixture was preincubated at 37° C. for 10 minutes, then 25 μl of a 1 mM Ang I solution was added and the mixture preincubated at 37° C. for 30 minutes. Next, 50 μl of 30% acetic acid was added to stop the enzymatic reaction. At the same time, a blind test was performed by adding, instead of the test sample solution, 5 μl of DMSO and performing the same reaction.
The reacted solution was subjected to high performance liquid chromatography using Develosil ODS-5 (made by Nomura Kagaku, .phi.4.6 mm×150 mm) and developed at a flow rate of 2.0 ml/min in 0.05% TFA by a straight concentration gradient raising the acetonitrile from 0% to 60% over 10 minutes. This was monitored by the absorbance at 210 nm and the peaks identified by comparison with standard samples of Ang I and Ang II. The peak areas were measured by an integrating meter to quantitatively analyze the Ang I and Ang II and calculate the chymase activity.

Test [3] concerns the target T3, bovine pancreatic α-chymotrypsin (Bos taurus, UniProt P00766).
T3 construct: purchased Sigma Co. Type II; host or cells: bovine pancreas
In words: Measurement of chymotrypsin inhibitive activity (Ang I, HPLC). Format: biochemical. The settings on record: for IC50: bovine pancreatic α-chymotrypsin, Ang I substrate, 37° C., 15 min, pH 7.5.

As for `CC(C)(C)OC(=O)Cn1c(=O)n(S(=O)(=O)c2ccc(Cl)cc2)c(=O)c2ccc(Cl)cc21` [Example 25, 1-t-butoxycarbonylmethyl-7-chloro-3-(4-chlorobenzenesulfonyl)-2,4(1H,3H)-quinazolinedione], the 50% inhibitory concentration (IC50) in test [1] stood at 37000 nM; in test [2], 6300 nM. The molecule further gave an inhibition at 100 µM in test [3] (percent inhibition at 100 μM) of 34.5%.

As to `O=C(O)c1ccc(S(=O)(=O)n2c(=O)[nH]c3cc(Cl)ccc3c2=O)cc1`, the figures for the IC50 in test [1], in test [2] and in test [3] were 580 nM, 3100 nM and 25000 nM, respectively.

For the molecule `C=CCOC(=O)c1ccc(S(=O)(=O)n2c(=O)[nH]c3cc(Cl)ccc3c2=O)cc1` [Example 5, 3-(4-allyloxycarbonylbenzenesulfonyl)-7-chloro-2,4(1H,3H)-quinazolinedione], the IC50 worked out at 340 nM in test [1] and 2000 nM in test [3].

In the case of `Cc1ccc(S(=O)(=O)n2c(=O)[nH]c3cc(Cl)ccc3c2=O)cc1C` [Example 9, 7-chloro-3-(3,4-dimethylbenzenesulfonyl)-2,4(1H,3H)-quinazolinedione], the IC50 in test [1] turned out to be 480 nM; in test [2], 1600 nM; in test [3] it was 2500 nM.

Take `O=C(O)c1cccc(S(=O)(=O)n2c(=O)[nH]c3cc(Cl)ccc3c2=O)c1` [Example 15, 3-(3-carboxybenzenesulfonyl)-7-chloro-2,4(1H,3H)-quinazolinedione]: the IC50 in test [1] was 790 nM; in test [2] it was 2400 nM; in test [3] it was 4800 nM.

In the case of `Cc1cc2[nH]c(=O)n(S(=O)(=O)c3ccc(Cl)cc3)c(=O)c2cc1C` [Example 21, 3-(4-chlorobenzenesulfonyl)-6,7-dimethyl-2,4(1H,3H)-quinazolinedione], the results for the IC50 in test [1], in test [2] and in test [3] were 37000 nM, 30000 nM and 8500 nM, respectively.

Consider `COC(=O)c1ccc(S(=O)(=O)n2c(=O)[nH]c3cc(Cl)ccc3c2=O)cc1` [Example 19, 7-chloro-3-(4-methoxycarbonylbenzenesulfonyl)-2,4(1H,3H)-quinazolinedione], for which the IC50 was determined as 160 nM in test [1], 200 nM in test [2] and 400 nM in test [3].

For `COc1cccc2c(=O)n(S(=O)(=O)c3ccc(Cl)cc3)c(=O)[nH]c12` [Example 7, 3-(4-chlorobenzenesulfonyl)-8-methoxy-2,4(1H,3H)-quinazolinedione], the IC50 came to 3200 nM in test [1], 23000 nM in test [2] and 1900 nM in test [3].

With `O=c1[nH]c2cc(F)ccc2c(=O)n1S(=O)(=O)c1ccc(Cl)cc1` [Example 31, 3-(4-chlorobenzenesulfonyl)-7-fluoro-2,4(1H,3H)-quinazolinedione], the IC50 in test [1] is 1100 nM; in test [2], 1700 nM; in test [3], 5700 nM.

On to `Cc1ccc(S(=O)(=O)n2c(=O)[nH]c3cc(Cl)ccc3c2=O)cc1` [Example 37, 7-chloro-3-(4-toluenesulfonyl)-2,4(1H,3H)-quinazolinedione], for which the IC50 amounted to 1200 nM in test [1], 1300 nM in test [2] and 6100 nM in test [3].

Turning to `O=c1[nH]c2cc3ccccc3cc2c(=O)n1S(=O)(=O)c1ccc(Cl)cc1` [Example 35, 3-(4chlorobenzenesulfonyl)-2,4(1H,3H)-benzo[g]quinazolinedione], the IC50 in test [2] is 2400 nM; in test [3], 1400 nM.

Regarding `O=c1[nH]c2ccccc2c(=O)n1S(=O)(=O)c1ccc(Cl)cc1` [Example 23, 3-(4-chlorobenzenesulfonyl)-2,4(1H,3H)-quinazolinedione], the 50% inhibitory concentration (IC50) in test [1] amounted to 3800 nM; in test [2] it was 1600 nM; in test [3], 12000 nM.

Consider `O=C(Cn1c(=O)n(S(=O)(=O)c2ccc(Cl)cc2)c(=O)c2ccc(Cl)cc21)c1ccccc1` [Example 108, 7-chloro-3-(4-chlorobenzenesulfonyl)-1-phenacyl-2,4(1H,3H)-quinazolinedione], for which the half-maximal inhibitory concentration (IC50) in test [2] was determined as 1300 nM.

In test [2], `CC[n+]1cccc(NC(=O)Cn2c(=O)n(S(=O)(=O)c3ccc(C)cc3)c(=O)c3ccc(Cl)cc32)c1` [Example 95, 3-{7-chloro-[3-(4-methylbenzene-sulfonyl)-3-(4-methoxybenzenesulfonyl)-2,4(1H,3H)-quinazolinedion-1-yl]acetylamino}-N-ethylpyridinium iodide] came in with an IC50 of 210 nM.

As for `O=C(Cn1c(=O)n(S(=O)(=O)c2cccnc2)c(=O)c2ccc(Cl)cc21)Nc1cccnc1` [Example 123, [7-chloro-3-(pyridine-3-sulfonyl)-2,4-(1H,3H)-quinazolinedion-1-yl]-N-(3-pyridyl)acetamide], the IC50 in test [2] was 580 nM. This IC50 is about 2.8-fold higher than that of the molecule before.

Take `C[n+]1ccc(NC(=O)Cn2c(=O)n(S(=O)(=O)c3ccc(Cl)cc3)c(=O)c3ccc(Cl)cc32)cc1` [Example 58, 4-{[7-chloro-3-(4-chlorobenzenesulfonyl)-2,4(1H,3H)-quinazolinedion-1-yl]acetylamino}-N-methylpyridinium iodide]: in test [2], half-maximal inhibition (IC50) required 130 nM.

In the case of `O=C(O)CCCOc1ccc(NC(=O)Cn2c(=O)n(S(=O)(=O)c3ccc(Cl)cc3)c(=O)c3ccc(Cl)cc32)cc1` [Example 111, [7-chloro-3-(4-chlorobenzenesulfonyl)-2,4(1H,3H)-quinazolinedion-1-yl]-N-(4-(3-carboxylpropyloxy)phenyl)acetamide], it took 130 nM to reach half-maximal inhibition in test [2] (IC50).

The molecule `N#Cc1cccc(Cn2c(=O)n(S(=O)(=O)c3ccc(Cl)cc3)c(=O)c3ccc(Cl)cc32)c1` [Example 61, 7-chloro-3-(4-chlorobenzenesulfonyl)-1-(3-cyanobenzyl)-2,4(1H,3H)-quinazolinedione] gave an IC50 in test [2] of 160 nM.

Regarding `O=c1c2ccc(Cl)cc2n(COCc2ccccc2)c(=O)n1S(=O)(=O)c1ccc(Cl)cc1` [Example 109, 1-(benzyloxymethyl)-7-chloro-3-(4-chlorobenzenesulfonyl)-2,4(1H,3H)-quinazolinedione], the IC50 in test [2] is 240 nM.

In turn, `O=c1[nH]c2cc(Cl)ccc2c(=O)n1S(=O)(=O)c1ccc(OCCBr)cc1` [Example 145, 7-chloro-3-[4-(2-bromoethyloxy)benzenesulfonyl]-2,4(1H,3H)-quinazolinedione] returned an IC50 in test [2] of 1500 nM. This IC50 lies about 6.2-fold higher than the previous one.

Consider `O=c1c2ccc(Cl)cc2n(Cc2ccccc2)c(=O)n1S(=O)(=O)c1ccc(Cl)cc1` [Example 59, 1-benzyl-7-chloro-3-(4-chlorobenzenesulfonyl)-2,4(1H,3H )-quinazolinedione], for which, in test [2], the IC50 was 370 nM.

Consider `O=C(Cn1c(=O)n(S(=O)(=O)c2ccc(Cl)cc2)c(=O)c2ccc(Cl)cc21)NCc1ccncc1` [Example 81, [7-chloro-3-(4-chlorobenzenesulfonyl)-2,4 (1H,3H)-quinazolinedion-1-yl]-N-(4-picolyl)acetamide], for which 220 nM corresponded to half-maximal inhibition in test [2] (IC50). Against the preceding molecule, the IC50 is about 1.7-fold lower.

As for `O=C(Cn1c(=O)n(S(=O)(=O)c2ccc(Cl)cc2)c(=O)c2ccc(Cl)cc21)Nc1ccccc1O` [Example 41, [7-chloro-3-(4-chlorobenzenesulfonyl)-2,4(1H,3H)-quinazolinedion-1-yl]-N-(2-hydroxyphenyl)acetamide], in test [2], the midpoint of inhibition, the IC50, lay at 310 nM.

Regarding `Cc1ccc(S(=O)(=O)n2c(=O)c3ccc(Cl)cc3n(CC(=O)Nc3cccnc3)c2=O)cc1` [Example 94, [7-chloro-3-(4-methylbenzenesulfonyl)-2,4(1H,3H)-quinazolinedion-1-yl]-N-(3-pyridyl)acetamide], the IC50 in test [2] is 170 nM. This IC50 lies about 1.8-fold lower than the previous one.

In the case of `O=c1[nH]c2cc(O)ccc2c(=O)n1S(=O)(=O)c1ccc(Cl)cc1` [Example 151], half-maximal inhibition in test [2] (IC50) was put at 2800 nM.

Molecule `O=C(O)C[n+]1cccc(NC(=O)Cn2c(=O)n(S(=O)(=O)c3ccc(Cl)cc3)c(=O)c3ccc(Cl)cc32)c1` [Example 84, 3-{[7-chloro-3-(4-chlorobenzenesulfonyl)-2,4(1H,3H)-quinazolinedion-1-yl]acetylamino}-N-carboxymethylpyridinium bromide] showed an IC50 in test [2] of 43 nM.

In turn, `O=C(Cn1c(=O)n(S(=O)(=O)c2ccc(Cl)cc2)c(=O)c2ccc(Cl)cc21)Nc1ccc(N2CCNCC2)cc1` [Example 93, [7-chloro-3-(4-chlorobenzenesulfonyl)-2,4(1H,3H)-quinazolinedion-1-yl]-N-(4-piperazin-1-yl)acetamide] displayed an IC50 in test [2] of 390 nM. Against the preceding molecule, the IC50 is about 9.1-fold higher.

Take `O=c1c2ccc(Cl)cc2n(Cc2cccnc2)c(=O)n1S(=O)(=O)c1ccc(Cl)cc1` [Example 114, 7-chloro-3-(4-chlorobenzenesulfonyl)-1-(3-pyridylmethyl)-2,4(1H,3H)-quinazolinedione]: the midpoint of inhibition in test [2], the IC50, lay at 46 nM.

`CC(C)(C)OC(=O)C[n+]1cccc(NC(=O)Cn2c(=O)n(S(=O)(=O)c3ccc(Cl)cc3)c(=O)c3ccc(Cl)cc32)c1` [Example 83, 3-{[7-chloro-3-(4-chlorobenzenesulfonyl)-2,4(1H,3H)-quinazolinedion-1-yl]acetylamino}-(N-t-butoxycarbonylmethylpyridinium) bromide] came in with an IC50 in test [2] of 38 nM.

In test [2], `CC[n+]1cccc(NC(=O)Cn2c(=O)n(S(=O)(=O)c3ccc(Cl)cc3)c(=O)c3ccc(Cl)cc32)c1` [Example 56, 3-{[7-chloro-3-(4-chlorobenzenesulfonyl)-2,4(1H,3H)-quinazolinedion-1-yl]acetylamino}-N-ethylpyridinium iodide] showed an IC50 of 31 nM.

For the origin of these results see patent publication US5814631A, “Quinazoline derivatives and applications thereof” (Suntory Limited, priority 1995, dated 1998).
